Experimental data: patent publication US20060257489A1, “Fine particles, method and device for preparation thereof, and agent for parenteral injection and method for production thereof” (priority 2003, published 2006)

Columns and labels:
Format in all cases: physicochemical
[1] = absorbance characteristic before and after laser beam irradiation (photochemical reaction / degeneration)
Method: (§1) The absorbance characteristic of the solution was measured by using a general-purpose spectrophotometer (HITACHI U-3500). […] The optical path length was set to 10 mm for the measurement.

[2] = observation of apparent dissolution in water after laser fine pulverization
Method: Subsequently, carbamazepine was suspended in water so that the concentration thereof was equal to 2 mg/ml, thereby preparing suspended liquid, and triple higher harmonics of YAG laser ([…], FWHM=4 ns, 20 Hz, irradiation time: 15 minutes) was irradiated to the suspended liquid.

[3] = particle diameter estimated from the absorbance characteristic after fine pulverization; conditions: for particle diameter after fine pulverization treatment: 355 nm, 310 mJ/cm^2Pulse
From the text: The measured value (R) of the absorbance measured by the general-purpose spectrophotometer contains the light absorption (A1) of finely-pulverized carbamazepine itself, the light scattering (S) and the light absorption (A2) of the added surfactant. A1 represents the fine pulverization state of carbamazepine, and it is estimated that the average particle diameter of carbamazepine is smaller as the light absorption is larger. Therefore, in order to estimate the particle diameter of carbamazepine after the treatment, with respect to the absorbance on the ordinate axis in FIG. 8, the increment (S) of the absorbance by the light scattering at each wavelength is approximated to the measured value (S1) of 500 nm at which carbamazepine has no absorption, and the measured value R of the absorbance is corrected to the absorbance A1 by using the operation of A1≈R−A2-S1.
The absorbance characteristic after the laser beam irradiation was measured in the same manner as example 3. In FIG. 9, the solid line represents the absorbance characteristic of the treatment target liquid using the surfactant liquid having the concentration of 1/1000, the one-dot-dashed line represents the absorbance characteristic of the treatment target liquid using the surfactant liquid having the concentration of 1/100, and the two-dot-dashed line represents the absorbance characteristic of the treatment target liquid using the surfactant liquid having the concentration of 1/10. The dashed line represents the absorbance characteristic of the treatment target liquid using no surfactant.

[4] = variation of the absorbance characteristic of the finely-pulverized solution with time lapse after laser beam irradiation (dispersion stability); conditions: finely-pulverized solution in water (355 nm, 380 mJ/cm^2Pulse, 15 minutes), after six days
Method: as §1
The absorbance characteristic indicated by the dashed line is the one before laser beam irradiation.

[5] = purity after fine pulverization treatment by HPLC, laser beam wavelength dependence; conditions: one hour
Method: In this example, fine pulverization of clobetasone butyrate as adrenal cortex hormone of hardly-soluble medicament was attempted. […] A stirring magnet stick for stirring the liquid was put in the square cell so that a laser beam was uniformly irradiated to the suspended liquid. The temperature of the suspended liquid was set to room temperature of 25° C. at all times except for a temperature dependence test.
In this example, a continuously wavelength-variable OPO parametric oscillator was used as a light source for fine pulverization because the wavelength dependence of the fine pulverization and photochemical reaction by laser beam irradiation was required to be investigated. The pulse width of the irradiation laser beam was set to FWHM 4 ns, and the repetition frequency was set to 10 Hz.
Subsequently, the irradiation wavelength of the laser beam was varied and the test was carried out.

Row | SMILES | photochemical reaction on laser beam irradiation ([1]; 1 mg/ml suspended in water, 355 nm, 310 mJ/cm^2Pulse, 15 minutes, with and without surfactant Tween20) | photochemical reaction on laser beam irradiation ([1]; 2 mg/ml suspended in water, 355 nm, 430 mJ/cm^2Pulse, 15 minutes) | dissolution when suspended in pure water ([2]; precipitate after laser treatment (355 nm, 430 mJ/cm^2Pulse, 15 minutes)) | dissolution when suspended in pure water ([2]; sample before the treatment) | particle diameter after fine pulverization treatment ([3]; 15 minutes, 1 mg/ml in water) | precipitation caused by the aggregation of fine particles [4] | degeneration after the treatment ([1]; 355 nm treatment, UV absorption curves just after the treatment and after six days) | photochemical reaction on laser beam irradiation ([1]; Kr-F laser 248 nm, otherwise as example 1) | appearance of the solution after the laser beam irradiation ([2]; water, 355 nm, 380 mJ/cm^2Pulse) | degree of fine pulverization of the suspended liquid ([3]; 0.5 mg/ml in water, YAG pulse laser 1064 nm, 1700 mJ/cm^2 per pulse, one hour) | particle diameter after fine pulverization treatment ([3]; with added surfactant Tween20) | purity after fine pulverization treatment (HPLC) ([5]; laser beam wavelength 500 nm or less) | purity after fine pulverization treatment (HPLC) ([5]; laser beam wavelength 500 to 800 nm)
1 | NC(=O)N1c2ccccc2C=Cc2ccccc21 [carbamazepine] | no photochemical reaction is induced | little photochemical reaction occurred | instantaneously dissolved | hardly dissolved | sub-micron or less | – | – | – | – | – | – | – | –
2 | CCCC(=O)O[C@]1(C(=O)CCl)[C@H](C)C[C@@H]2[C@@H]3CCC4=CC(=O)C=C[C@]4(C)[C@]3(F)C(=O)C[C@@]21C [clobetasone butyrate] | – | – | – | – | – | rarely observed | no degeneration occurred | some photochemical reaction occurs | transparent | sub-micrometer order | sub-micron or less | degradation is also small | great degradation of the purity
